Data taken from BindingDB's records for patent US9834551 (Arrien Pharmaceuticals, 2017).

Molecular target: T1, Tyrosine-protein kinase JAK3 (Homo sapiens, UniProt P52333)
T1 sequence (P52333 whole entry): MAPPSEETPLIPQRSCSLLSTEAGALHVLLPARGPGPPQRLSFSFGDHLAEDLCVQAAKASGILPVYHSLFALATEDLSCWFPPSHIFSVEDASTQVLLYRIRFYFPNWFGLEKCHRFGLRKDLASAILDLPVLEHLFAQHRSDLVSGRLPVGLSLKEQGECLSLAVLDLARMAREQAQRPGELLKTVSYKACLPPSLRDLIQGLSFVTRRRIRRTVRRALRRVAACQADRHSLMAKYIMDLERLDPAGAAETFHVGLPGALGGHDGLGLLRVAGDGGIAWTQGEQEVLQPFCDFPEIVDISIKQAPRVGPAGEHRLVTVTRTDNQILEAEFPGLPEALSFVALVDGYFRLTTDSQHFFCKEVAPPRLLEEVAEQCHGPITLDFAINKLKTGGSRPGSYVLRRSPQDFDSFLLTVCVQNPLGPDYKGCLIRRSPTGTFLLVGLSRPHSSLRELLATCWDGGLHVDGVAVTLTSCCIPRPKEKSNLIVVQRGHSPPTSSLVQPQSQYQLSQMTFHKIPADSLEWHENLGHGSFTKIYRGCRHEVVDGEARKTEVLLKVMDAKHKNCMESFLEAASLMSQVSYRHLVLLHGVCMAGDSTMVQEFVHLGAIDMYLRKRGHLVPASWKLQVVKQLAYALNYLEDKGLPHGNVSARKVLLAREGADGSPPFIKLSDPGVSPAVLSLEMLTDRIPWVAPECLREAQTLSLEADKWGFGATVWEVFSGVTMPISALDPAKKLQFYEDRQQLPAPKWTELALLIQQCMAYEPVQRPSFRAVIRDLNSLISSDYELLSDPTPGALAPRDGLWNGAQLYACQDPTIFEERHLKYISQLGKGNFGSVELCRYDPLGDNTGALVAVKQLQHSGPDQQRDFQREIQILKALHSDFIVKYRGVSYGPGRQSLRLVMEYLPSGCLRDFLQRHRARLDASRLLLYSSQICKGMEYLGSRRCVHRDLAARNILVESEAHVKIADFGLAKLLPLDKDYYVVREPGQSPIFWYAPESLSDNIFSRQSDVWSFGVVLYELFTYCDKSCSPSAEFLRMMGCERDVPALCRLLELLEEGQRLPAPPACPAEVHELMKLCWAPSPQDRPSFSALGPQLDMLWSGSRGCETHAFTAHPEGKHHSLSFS
Experiment: In Vitro Inhibition Assay
Protocol: All additions were done on ice, followed by the addition of ATP mix. Wells were uniformly mixed using an Eppendorff plate shaker and incubated at 30° C. for 20 min, and stopped by the addition of 5 μL of 3% phosphoric acid. Volume was increased to 100 μL by adding 0.8% phosphoric acid which was then transferred to PC filter mats (Millipore), pre-equilibrated with 70% ethanol and water. Plates were washed thrice with 100 μL 0.8% phosphoric acid and dried for an hour at 60° C. 100 μL scintillation fluid was added into each well and reading taken in Perkin Elmer TOPCOUNT beta counter.

IC50 | Structure (SMILES)
< 100 nM | C=CC(=O)Nc1cccc(-c2cnc3[nH]cc(-c4cccc(C)c4F)c3c2)c1 [US9834551, Example 148]
< 100 nM | C=CC(=O)Nc1cccc(-c2cnc3[nH]cc(-c4cccc(S(=O)(=O)N(CC)CC)c4)c3c2)c1 [US9834551, Example 28]
